76 compounds from PubChem BioAssay AID720632 (Broad Institute, 2013) can be followed below.

The structures appear in SMILES notation. Calls of active or inactive are those of the source. How the calls were made is not given here.

Sequence of Caspase-6 (Homo sapiens) (P55212 24-179 limits assumed): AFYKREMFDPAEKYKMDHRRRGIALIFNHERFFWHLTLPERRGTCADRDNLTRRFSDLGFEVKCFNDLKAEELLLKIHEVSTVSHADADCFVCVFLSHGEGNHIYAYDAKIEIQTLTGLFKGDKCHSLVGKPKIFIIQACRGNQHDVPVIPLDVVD
Sequence of Caspase-6 (Homo sapiens) (P55212 194-293 limits assumed): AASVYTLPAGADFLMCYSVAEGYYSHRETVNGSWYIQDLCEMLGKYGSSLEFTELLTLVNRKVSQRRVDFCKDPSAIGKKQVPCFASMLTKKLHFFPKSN

The first experiment concerns the target Caspase-6 (Homo sapiens) (UniProt P55212). Briefly: human caspase-6 inhibitors, dose response, biochemical, VEID-R110 fluorescence, cherry-pick (AID 720632). The note with it: caspase-6, VEID-R110 fluorogenic substrate.
By AC50 is commonly meant the midpoint of the concentration-response curve, whichever way the signal moves. Take `C[CH2][Hg][S]c1ccccc1C(=O)O`: the half-maximal activity concentration (AC50) is 6.91 µM.

Still in this experiment, the particulars now being: caspase-6, VEID-R110 fluorogenic substrate; at 23.5 µM (top of the series).
As to `COc1ccccc1C(=O)Nc1ccc2c(c1)OC[C@@H](C)N(CC1CC1)C[C@@H](C)[C@H](OC)CN(C)C2=O`, the “activity change, negative = inhibition” value is “inactive”.

Still in this experiment, the particulars now being: caspase-6, VEID-R110 fluorogenic substrate; at 26 µM (top of the series).
Take `CCOC(=O)c1sc(C)c2c(=O)n(Cc3ccc(Cl)cc3)cnc12`: the “activity change, negative = inhibition” value was “inactive”.

As to `CC(C)NC(=O)C1(C)CCN1C(=O)c1ccc2c(c1)OCO2` (stereo unspecified), the “activity change, negative = inhibition” value was “inactive”.

As to `CCC(=O)Nc1ccc2c(c1)OC[C@H](C)N(C(=O)CC)C[C@@H](C)[C@@H](OC)CN(C)C2=O`, the “activity change, negative = inhibition” value was “inactive”.

For the compound `CC(=O)c1ccc(S(=O)(=O)N2CCN(C(=O)c3ccc(-n4cncn4)c([N+](=O)[O-])c3)CC2)cc1`, the “activity change, negative = inhibition” value was “inactive”.

Consider `C/C(=N\NC(=O)c1ccccc1O)c1ccc(NC(=O)Cc2ccccc2)cc1`, for which the “activity change, negative = inhibition” value was “inactive”.

Consider `C=CCOc1cccn2c(N(C=O)Cc3ccccc3)c(CC)nc12`, for which the “activity change, negative = inhibition” value is “inactive”.

On to `O=C1Cc2cc(S(=O)(=O)N3CCN(c4ccc(C(=O)O)cc4)CC3)ccc2N1`, for which the “activity change, negative = inhibition” value was “inactive”.

On to `Cn1c(CSCCOc2ccccc2)n[nH]c1=S`, for which the “activity change, negative = inhibition” value was “inactive”.

As to `COc1ccc(S(=O)(=O)n2cnc3ccccc32)cc1OC`, the “activity change, negative = inhibition” value is “inactive”.

With `Cc1ccc(C(=O)NCC(=O)N(C)Cc2ccccc2C)s1`, the “activity change, negative = inhibition” value is “inactive”.

In the case of `COc1cccc(C(=O)N2CCN(Cc3ccc(OC)cc3OC)CC2)c1`, the “activity change, negative = inhibition” value is “inactive”.

Consider `CN(c1ccccc1)S(=O)(=O)c1cccc(C(=O)OCC(=O)Nc2ccc(C(N)=O)cc2)c1`, for which the “activity change, negative = inhibition” value was “inactive”.

For the compound `CO[C@@H]1CN(C)C(=O)c2ccc(NC(=O)C3CC3)cc2OC[C@@H](C)N(C)C[C@H]1C`, the “activity change, negative = inhibition” value is “inactive”.

Regarding `Cc1ccc(C)c(S(=O)(=O)N2CCN(C(C)C(=O)Nc3ccccc3-c3ccccc3)CC2)c1` (stereo unspecified), the “activity change, negative = inhibition” value is “inactive”.

For `CCCC(=O)Nc1ccc2c(c1)OC[C@@H](C)N(C(=O)CC)C[C@@H](C)[C@@H](OC)CN(C)C2=O`, the “activity change, negative = inhibition” value was “inactive”.

Take `CN(c1ccc(C(=O)Nc2ccc3c(c2)n(C)c(=O)n3C)cc1)S(C)(=O)=O`: the “activity change, negative = inhibition” value is “inactive”.

In the case of `O=C(Nc1ccc2c(c1)[C@H]1C[C@H](CC(=O)N3CCCCC3)O[C@@H](CO)[C@H]1O2)Nc1ccccc1F`, the “activity change, negative = inhibition” value was “inactive”.

Regarding `Cc1ccccc1OC1(C)CCN(Cc2ccc(-c3ccccn3)cc2)C1` (stereo unspecified), the “activity change, negative = inhibition” value is “inactive”.

With `O=C(O)C[C@H]1CC[C@H]2[C@@H](COC[C@H](O)CN2S(=O)(=O)c2ccc(Oc3ccccc3)cc2)O1`, the “activity change, negative = inhibition” value is “inactive”.

On to `CCCC(=O)Nc1ccc2c(c1)OC[C@@H](C)N(C)C[C@@H](C)[C@H](OC)CN(C)C2=O`, for which the “activity change, negative = inhibition” value is “inactive”.

For `O=C1c2ccccc2C(=O)C1(CO)c1ccccc1`, the “activity change, negative = inhibition” value was “inactive”.

On to `CCOC(=O)c1c(C)c(C(=O)NCc2ccc(OC)cc2)c(C)n1C`, for which the “activity change, negative = inhibition” value was “inactive”.

With `CCN=c1sc(C(=O)Nc2ccccc2)c(C)n1CC`, the “activity change, negative = inhibition” value is “inactive”.

`O=C1[C@H]2[C@@H](c3ccccc3)N[C@]3(CCCN(CC4CCCCC4)C3=O)[C@H]2C(=O)N1Cc1ccccc1`: the “activity change, negative = inhibition” value is “inactive”.

Turning to `CCCN1C[C@@H](C)[C@@H](OC)CN(C)C(=O)c2ccc(NC(=O)c3ccccc3)cc2OC[C@@H]1C`, the “activity change, negative = inhibition” value is “inactive”.

As to `CO[C@@H]1CN(C)C(=O)c2ccc(NC(C)=O)cc2OC[C@@H](C)N(C(=O)CC2CC2)C[C@@H]1C`, the “activity change, negative = inhibition” value was “inactive”.

`COc1ccc(N2CCN(C(=O)CCCn3c(=S)[nH]c4cc5c(cc4c3=O)OCO5)CC2)cc1`: the “activity change, negative = inhibition” value was “inactive”.

`COc1cc(OC)c(OC)cc1CN1CCSCC1`: the “activity change, negative = inhibition” value is “inactive”.

With `O=C(NNC(=O)c1ccccc1O)c1ccccc1O`, the “activity change, negative = inhibition” value is “inactive”.

For `CCCN1C[C@@H](C)[C@H](OC)CN(C)C(=O)c2ccc(NC(=O)CC)cc2OC[C@@H]1C`, the “activity change, negative = inhibition” value is “inactive”.

Regarding `O=C(O)c1ccc(Cn2cc(/C=C\[N+](=O)[O-])c3ccccc32)o1`, the “activity change, negative = inhibition” value was “inactive”.

As to `CCOc1cc2c(cc1OC)C(c1cccc([N+](=O)[O-])c1)NCC2` (stereo unspecified), the “activity change, negative = inhibition” value was “inactive”.

Regarding `COc1cccc(NC(=O)Cn2c(=O)n(C)c(=O)c3sc4c(c32)COC(C)(C)C4)c1`, the “activity change, negative = inhibition” value was “inactive”.

For `CC(C)(C)NC(=O)C1CCN(S(=O)(=O)c2cccc3nsnc23)CC1`, the “activity change, negative = inhibition” value was “inactive”.

Consider `O=C(Nc1ccc2c(c1)OCCO2)C1CCCC1`, for which the “activity change, negative = inhibition” value is “inactive”.

With `O=C(CCCn1c(=S)[nH]c2cc3c(cc2c1=O)OCO3)N1CCN(C2CCCCC2)CC1`, the “activity change, negative = inhibition” value was “inactive”.

Take `O=C1NC2=C(C(=O)CCC2)C(c2cccc([N+](=O)[O-])c2)N1` (stereo unspecified): the “activity change, negative = inhibition” value was “inactive”.

With `Cc1ccccc1CN(C)C(=O)COC(=O)CSc1ccc([N+](=O)[O-])cc1`, the “activity change, negative = inhibition” value was “inactive”.

With `COc1cccc(C(=O)OC(C)C(=O)NCC2CCCCC2)c1` (stereo unspecified), the “activity change, negative = inhibition” value is “inactive”.

Consider `COC(=O)c1cccc(NC(=O)c2cccc(N3C(=O)CCC3=O)c2)c1`, for which the “activity change, negative = inhibition” value was “inactive”.

`O=C(O)c1cccc(S(=O)(=O)NNc2ccccc2C(F)(F)F)c1`: the “activity change, negative = inhibition” value is “inactive”.

As for `CCCC(=O)Nc1ccc2c(c1)OC[C@@H](C)N(Cc1ccc(F)cc1)C[C@@H](C)[C@@H](OC)CN(C)C2=O`, the “activity change, negative = inhibition” value is “inactive”.

As for `COc1cc(NC(=O)c2cccnc2)c(Cl)cc1NC(=O)c1ccccc1`, the “activity change, negative = inhibition” value was “inactive”.

On to `CN1CCN(c2ccc(CNC(=O)C3Cc4c(-c5ccc6c(c5)OCO6)ccnc4O3)cc2)CC1` (stereo unspecified), for which the “activity change, negative = inhibition” value was “inactive”.

As for `CSc1ccc(CN2CCC2(C)C(=O)Nc2cccc(NS(C)(=O)=O)c2)cc1` (stereo unspecified), the “activity change, negative = inhibition” value is “inactive”.

For `C[C@@H]1CN([C@H](C)CO)C(=O)c2cc(Br)cnc2O[C@H]1CN(C)CC1CCCC1`, the “activity change, negative = inhibition” value is “inactive”.

For the compound `CCCNC(=O)[C@@H]1[C@@H](CO)[C@@H]2Cn3c(ccc(-c4ccccc4)c3=O)[C@@H]2N1CC1CC1`, the “activity change, negative = inhibition” value is “inactive”.

Regarding `CCC(=O)Nc1ccc2c(c1)OC[C@@H](C)N(C(=O)CC)C[C@H](C)[C@H](OC)CN(C)C2=O`, the “activity change, negative = inhibition” value was “inactive”.

As for `O=C(NC(=O)c1csnn1)Nc1ccccc1Cl`, the “activity change, negative = inhibition” value was “inactive”.

Consider `COc1ccc(O)c(C(c2c(C)[nH][nH]c2=O)c2c(C)[nH][nH]c2=O)c1`, for which the “activity change, negative = inhibition” value is “inactive”.

Consider `Cc1ccc2oc(C(=O)N(Cc3ccc(N(C)C)cc3)C3CCS(=O)(=O)C3)c(C)c2c1` (stereo unspecified), for which the “activity change, negative = inhibition” value is “inactive”.

In the case of `CCN(Cc1ccccc1OC)CC1CCCN(CCc2cccc(OC)c2)C1` (stereo unspecified), the “activity change, negative = inhibition” value was “inactive”.

`Cc1ccc(C(=O)N/N=C\c2ccc(OC(=O)c3cccc(F)c3)cc2)cn1`: the “activity change, negative = inhibition” value is “inactive”.

With `O=[N+]([O-])c1ccccc1S(=O)(=O)Nc1nc2ccccc2s1`, the “activity change, negative = inhibition” value is “inactive”.

As for `Cc1nc2ccccc2n1CCOc1ccccc1`, the “activity change, negative = inhibition” value is “inactive”.

For the compound `NC[C@H](O)c1ccc(O)c(O)c1`, the “activity change, negative = inhibition” value was “inactive”.

On to `C#CCNC(=O)C[C@@H]1C[C@@]2(C(=O)OCC)CCC=C2N(Cc2ccc(Cl)cc2Cl)C1=O`, for which the “activity change, negative = inhibition” value was “inactive”.

For `O=C(COC(=O)c1ccc([N+](=O)[O-])s1)NC(=O)NCc1ccccc1`, the “activity change, negative = inhibition” value was “inactive”.

Turning to `Cc1csc(=O)n1CCC(=O)OCc1nnc(-c2ccc([N+](=O)[O-])cc2)o1`, the “activity change, negative = inhibition” value is “inactive”.

As to `OC(c1ccc(F)cc1)c1ncc(-c2ccccc2F)[nH]1` (stereo unspecified), the “activity change, negative = inhibition” value is “inactive”.

Regarding `CCC(=O)Nc1ccc2c(c1)OC[C@H](C)N(C(=O)CC)C[C@@H](C)[C@H](OC)CN(C)C2=O`, the “activity change, negative = inhibition” value is “inactive”.

For `COc1ccc(NC(=O)C(F)(OC)C(F)(F)F)c(OC)c1` (stereo unspecified), the “activity change, negative = inhibition” value is “inactive”.

Turning to `CCN(CC)c1ccc2c(cc1=O)[C@@H](NC)CCc1cc(OC)c(OC)c(OC)c1-2`, the “activity change, negative = inhibition” value was “inactive”.

For `COc1ccccc1C(=O)Nc1ccc2c(c1)OC[C@H](C)N(CC1CC1)C[C@@H](C)[C@H](OC)CN(C)C2=O`, the “activity change, negative = inhibition” value is “inactive”.

`COc1ccccc1NC(=O)c1ccccc1S(=O)(=O)c1ccc([N+](=O)[O-])cc1`: the “activity change, negative = inhibition” value is “inactive”.

For the compound `OC[C@H]1[C@H](c2ccc(-c3ccccc3F)cc2)[C@H]2CN(Cc3cccnc3)CCCCN21`, the “activity change, negative = inhibition” value is “inactive”.

As for `COc1ccc2oc(C(=O)N3CCN(c4ncccn4)CC3)c(C)c2c1`, the “activity change, negative = inhibition” value was “inactive”.

On to `O=C(NC1CCCCC1)N[C@H]1C=C[C@@H](CC(=O)N2CCOCC2)O[C@@H]1CO`, for which the “activity change, negative = inhibition” value is “inactive”.

For the compound `Cc1cc(N2CCCC2)ccc1NC(=O)CN1C(=O)NC2(CCCCC2)C1=O`, the “activity change, negative = inhibition” value is “inactive”.

Regarding `O=C(NC1CC2CCC(C1)N2Cc1ccccc1)c1ccccc1Br` (stereo unspecified), the “activity change, negative = inhibition” value is “inactive”.

`CC(C)(C)c1ccc(C(=O)Nc2ccc(S(=O)(=O)Nc3cnc4ccccc4n3)cc2)cc1`: the “activity change, negative = inhibition” value is “inactive”.

As to `OC(CNC1CCCCC1)COCCOc1ccc(Br)cc1` (stereo unspecified), the “activity change, negative = inhibition” value was “inactive”.

`O=C(Nc1cccc(F)c1)c1coc(=O)c(Br)c1`: the “activity change, negative = inhibition” value was “inactive”.

For the compound `CC(=O)N1CCc2c(sc(NC(=O)C3CCCCC3)c2C(N)=O)C1`, the “activity change, negative = inhibition” value is “inactive”.
